Test results published in US20020102688A1, “Methods and products for the synthesis of oligosaccharide structures on glycoproteins, glycolipids, or as free molecules, and for the isolation of cloned genetic sequences that determine these structures” (The Regents of the University of Michigan, priority 1990, published 2002).

Biological target: T1, Fuc-TIV (Homo sapiens, UniProt P22083)
T1 sequence (P22083 1-405 isoform P22083-2): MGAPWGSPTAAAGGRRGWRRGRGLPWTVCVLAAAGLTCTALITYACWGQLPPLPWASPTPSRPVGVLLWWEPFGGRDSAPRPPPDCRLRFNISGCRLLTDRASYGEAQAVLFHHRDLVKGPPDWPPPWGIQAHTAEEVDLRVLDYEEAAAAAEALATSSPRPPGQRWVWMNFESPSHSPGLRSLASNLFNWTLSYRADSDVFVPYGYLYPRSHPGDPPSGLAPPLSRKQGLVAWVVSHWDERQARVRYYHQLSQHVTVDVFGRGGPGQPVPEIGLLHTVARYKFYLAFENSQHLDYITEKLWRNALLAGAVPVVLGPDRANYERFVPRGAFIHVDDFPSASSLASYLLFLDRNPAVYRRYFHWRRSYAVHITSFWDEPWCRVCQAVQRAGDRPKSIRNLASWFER
Experiment: Fucosyltransferase assay, extracts of COS-1 cells transfected with pCDNA1-Fuc-TIV
Format: biochemical
Set-up: expressed in transfected cells; host or cells: COS-1 cells, transient transfection, 1% Triton X-100 extract
Settings: for fucose transfer to acceptor: pCDNA1-Fuc-TIV COS-1 extracts with relatively large activity toward N-acetyllactosamine; for Relative Activity (%) with Fuc-TIV: relative product formation rate, N-acetyllactosamine = 100, acceptor 20 mM (2-fucosyllactose 5 mM), GDP-[14C]fucose 3 μM, transfected COS-1 cell extract; for fucosyltransferase activity with acceptor substrate: standard assay, extracts of pCDNA1-Fuc-TIV transfected COS-1 cells, acceptor 20 mM
Protocol: Cell extracts containing 1% Triton X-100 were prepared from transfected COS-1 cells. Fucosyltransferase assays were performed in a total volume of 20 μl, and contained 50 mM sodium cacodylate, pH 6.2, 5 mM ATP, 10 mM fucose, 20 mM MnCl2, 3 μM GDP-^14C-fucose, and 5 μl (30 μg protein) of cell extract. Acceptor substrates were added to a final concentration of 20 mM. Reactions were incubated at 37° C. for 1 hour and terminated by addition of 20 μl ethanol, followed by addition of 600 μl of distilled water. An aliquot of each reaction (50 μl) was subjected to scintillation counting to determine total radioactivity in the reaction. Another aliquot (200 μl) was applied to a column containing 400 μl of Dowex IX2-400, formate form. The flow through fraction, and […] of a subsequent water elution, were collected and pooled, and an aliquot was subjected to scintillation counting to quantitate incorporation of radioactive fucose into neutral product. Descending paper chromatography was used to confirm the structure of the product formed with the acceptor N-acetyllactosamine. The neutral product in the Dowex column eluate was concentrated by lyophilization, resuspended in a small volume of water, and fractionated through Whatman No. 40 in phenol/isopropanol/formic acid/water (85:5:10:100, lower layer). After chromatography (40 hours), the air-dried chromatogram was cut into 1 cm strips and the strips eluted into 2 ml of water. Radioactivity in each eluate was determined by scintillation counting after mixing with 10 ml of scintillation cocktail.
Table 2 presents the relative product formation rates obtained with low molecular weight acceptor substrates using cell extracts containing recombinant human α(1,3)fucosyltransferases expressed in transfected COS-1 cells, as described in the preceding sections. Fucosyltransferase assays were performed as described in detail in Lowe et al, J. Biol. Chem., (1991), 266:17467-17477; Weston et al, J. Biol. Chem. (1992), 267:4152-4160; and Kukowska-Latallo et al, Genes. Devel., (1990), 4:1288-1303. For each enzyme, the same extract was used, with saturating amounts of each acceptor oligosaccharide (20 mM, except for 2′-fucosylactose which was used at 5 mM), and GDP-^14C]fucose was present at 3 μM. Reaction times and enzyme amounts were adjusted to ensure a linear rate of product formation (less than 15% of the GDP-fucose substrate consumed). Products were separated by column chromatography and quantitated by liquid scintillation counting, and their structures were confirmed by high performance liquid chromatography, as described in Lowe et al, J. Biol. Chem., (1991), 266:17467-17477; Weston et al, J. Biol. Chem. (1992), 267:4152-4160; and Kukowska-Latallo et al, Genes. Devel., (1990), 4:1288-1303.

Row | Relative Activity (%) with Fuc-TIV | fucosyltransferase activity with acceptor substrate | Compound | fucose transfer to acceptor
1 | <1% | trace amount | CC(=O)N[C@@H]1[C@@H](O[C@@H]2O[C@H](CO)[C@H](O)[C@H](O)[C@H]2O)[C@H](O)[C@@H](CO)O[C@@H]1O [lacto-N-biose I] | –
2 | 3% | 10 pmol/mg/h | OC[C@H]1O[C@@H](O[C@H]2[C@H](O)[C@@H](O)C(O)O[C@@H]2CO)[C@H](O)[C@@H](O)[C@H]1O (some centres unmarked) [lactose] | –
3 | <1% | – | CC(=O)NC1C(O)OC(CO)C(OC2OC(CO)C(O)C(OC3(C(=O)O)CC(O)C(NC(C)=O)C(C(O)C(O)CO)O3)C2O)C1O (stereo not drawn) [α(2,3)sialyllactosamine, NeuAcα(2→3)Galβ(1→4)GlcNAc] | less than 1 pmol/mg-h

Further lines, the compound ahead of its results:

Row | Compound | Relative Activity (%) with Fuc-TIV | fucosyltransferase activity with acceptor substrate | fucose transfer to acceptor
4 | CC(=O)N[C@H]1C(O)O[C@H](CO)[C@@H](O[C@@H]2O[C@H](CO)[C@H](O)[C@H](O)[C@H]2O)[C@@H]1O (some centres unmarked) [N-acetyllactosamine] | 100% | 296 pmol/mg/h | 474 pmol/mg/h
5 | Fucα(1,2)Galβ(1,4)Glc [2-fucosyllactose] | 6% | 17 pmol/mg/h | –
